In brackets after ≈: the same amount, converted by molar mass. Starred links: 1 amine or outer side, 2 acyl side, 3 side chain; linkers in the order of their positions; H or OH if unused. Non-standard residues stand in square brackets, D forms with d. Residues, ends and D or L forms follow the SMILES beside them. ξ: configuration not given here. Pro(3ξ,4ξ-(CH2)4) = O=C(O)[C@H]1NCC2CCCCC21; Oic = O=C(O)[C@@H]1C[C@@H]2CCCC[C@@H]2N1; X3 = O=C(C[C@H]1C2CCCCC2CN1[*:1])[*:2]; Tic = O=C(O)[C@@H]1Cc2ccccc2CN1; Dap = NC[C@H](N)C(=O)O

Holding throughout (format): functional
The test system of one assay is Brucella suis. Put plainly: Antimicrobial activity against Brucella suis ATCC 23445 after 24 hrs. As to conditions: ATCC 23445, 24 h.
Assay [1] relates to Acinetobacter baumannii. Put plainly: Antimicrobial activity against Acinetobacter baumannii ATCC 19606 after 24 hrs. To be noted: ATCC 19606 = CIP 70.34 = JCM 6841, 24 h.
Another assay deals with Francisella tularensis. Put plainly: Antimicrobial activity against Francisella tularensis SCHU-S4 after 24 hrs. To be noted: SCHU-S4, 24 h.
The next assay relates to Yersinia pestis. Put plainly: Antimicrobial activity against Yersinia pestis CO92 after 24 hrs. To be noted: CO92, 24 h.
A further assay has as its system Bacillus anthracis. Put plainly: Antimicrobial activity against Bacillus anthracis Ames after 24 hrs.
Assay [2] has as its system Burkholderia pseudomallei. Put plainly: Antimicrobial activity against Burkholderia pseudomallei BURK003(1026b) after 24 hrs.
In the next assay the test system is Burkholderia mallei. Put plainly: Antimicrobial activity against Burkholderia mallei ATCC 23444 after 24 hrs. To be noted: ATCC 23444, 24 h.
Another assay concerns Brucella melitensis. Put plainly: Antimicrobial activity against Brucella melitensis 16 M after 24 hrs.
A further assay concerns Brucella abortus. Put plainly: Antimicrobial activity against Brucella abortus 2308 after 24 hrs. As to conditions: Brucella abortus, 2308, 24 h.
Assay [3] deals with Acinetobacter baumannii. Put plainly: Antimicrobial activity against Acinetobacter baumannii WRAIR after 24 hrs.
The subject of a further assay is Staphylococcus aureus. Put plainly: Antimicrobial activity against methicillin-resistant Staphylococcus aureus ATCC 33591 after 24 hrs. To be noted: ATCC 33591, 24 h.

What is called MIC is the lowest concentration found to suppress growth. On to `CC(=O)N[C@@H](Cc1ccccc1)C(=O)N1Cc2ccccc2C[C@H]1C(=O)N1CC2CCCCC2[C@H]1C(=O)N[C@@H](CCCCN)C(=O)N1Cc2ccccc2C[C@H]1C(=O)N1CC2CCCCC2[C@H]1C(=O)N[C@@H](Cc1ccccc1)C(=O)N1Cc2ccccc2C[C@H]1C(=O)N1CC2CCCCC2[C@H]1C(=O)N[C@@H](CCCCN)C(=O)N1Cc2ccccc2C[C@H]1C(=O)N[C@@H](CCCCN)C(=O)N[C@@H](CCCCN)C(=O)N[C@@H](CCCCN)C(=O)N[C@@H](CCCCN)C(=O)N[C@@H](CCCCN)C(=O)N[C@@H](CCCCN)C(N)=O` (some centres undefined) (Ac-F[Tic][Pro(3ξ,4ξ-(CH2)4)]K[Tic][Pro(3ξ,4ξ-(CH2)4)]F[Tic][Pro(3ξ,4ξ-(CH2)4)]K[Tic]KKKKKK-NH2), for which the minimal inhibitory concentration (MIC) turned out to be 13 µM (≈ 32.1 µg/mL) in the assay with Brucella suis; 6.3 µM (≈ 15.6 µg/mL) in the assay on Acinetobacter baumannii [1]; 202 µM (≈ 499 µg/mL) against Francisella tularensis; 101 µM (≈ 249 µg/mL) with Yersinia pestis; 0.75 µM (≈ 1.85 µg/mL) in the assay with Bacillus anthracis; 202 µM (≈ 499 µg/mL) in assay [2]. The minimum inhibitory concentration (MIC) in the assay on Burkholderia mallei is 202 µM (≈ 499 µg/mL); against Brucella melitensis, 202 µM (≈ 499 µg/mL); in the assay with Brucella abortus, 101 µM (≈ 249 µg/mL); against Acinetobacter baumannii [3] it was 6.3 µM (≈ 15.6 µg/mL); against Staphylococcus aureus, 25.3 µM (≈ 62.5 µg/mL).

Consider `CC(=O)NCC(=O)N[C@@H](Cc1ccccc1)C(=O)N[C@@H](Cc1ccccc1)C(=O)N1CC2CCCCC2[C@H]1C(=O)NCC(=O)N[C@@H](CCCCN)C(=O)N[C@@H](Cc1ccccc1)C(=O)N1CC2CCCCC2[C@H]1C(=O)NCC(=O)N[C@@H](Cc1ccccc1)C(=O)N[C@@H](Cc1ccccc1)C(=O)N1CC2CCCCC2[C@@H]1CC(=O)N[C@@H](CCCCN)C(=O)N[C@@H](Cc1ccccc1)C(=O)N[C@@H](CCCCN)C(=O)N[C@@H](CCCCN)C(=O)N[C@@H](CCCCN)C(=O)N[C@@H](CCCCN)C(N)=O` (some centres undefined) (Ac-GFF[Pro(3ξ,4ξ-(CH2)4)]GKF[Pro(3ξ,4ξ-(CH2)4)]GFF[X3]KFKKKK-NH2), for which the MIC turned out to be 26 µM (≈ 61.1 µg/mL) in the assay on Brucella suis; 3.2 µM (≈ 7.52 µg/mL) against Acinetobacter baumannii [1]; 0.01 µM (≈ 0.0235 µg/mL) against Francisella tularensis; 3.2 µM (≈ 7.52 µg/mL) with Yersinia pestis; 0.2 µM (≈ 0.47 µg/mL) with Bacillus anthracis; 208 µM (≈ 489 µg/mL) in assay [2]. In addition, the MIC came to 208 µM (≈ 489 µg/mL) with Burkholderia mallei; 26 µM (≈ 61.1 µg/mL) in the assay with Brucella melitensis; 26 µM (≈ 61.1 µg/mL) against Brucella abortus; 3.2 µM (≈ 7.52 µg/mL) with Acinetobacter baumannii [3]; 208 µM (≈ 489 µg/mL) in the assay with Staphylococcus aureus.

For `CC1(C)S[C@@H]2[C@H](NC(=O)[C@H](N)c3ccccc3)C(=O)N2[C@H]1C(=O)O` [AMPICILLIN], the MIC in the assay on Brucella suis came to 0.8 µM (≈ 0.28 µg/mL); against Acinetobacter baumannii [1] it was 179 µM (≈ 62.5 µg/mL); against Francisella tularensis it was 0.09 µM (≈ 0.0314 µg/mL); with Yersinia pestis, 0.8 µM (≈ 0.28 µg/mL); against Bacillus anthracis, 0.4 µM (≈ 0.14 µg/mL); in assay [2], 0.09 µM (≈ 0.0314 µg/mL). Also, the minimum inhibitory concentration (MIC) is 0.09 µM (≈ 0.0314 µg/mL) against Burkholderia mallei; 11 µM (≈ 3.84 µg/mL) with Brucella melitensis; 11 µM (≈ 3.84 µg/mL) against Brucella abortus; 1430 µM (≈ 500 µg/mL) against Acinetobacter baumannii [3]; 93 µM (≈ 32.5 µg/mL) in the assay with Staphylococcus aureus.

As for `CC(=O)NCC(=O)N[C@@H](Cc1ccccc1)C(=O)N1Cc2ccccc2C[C@H]1C(=O)N1[C@H](C(=O)NCC(=O)N[C@@H](CN)C(=O)N2Cc3ccccc3C[C@H]2C(=O)N2[C@H](C(=O)NCC(=O)N[C@@H](Cc3ccccc3)C(=O)N3Cc4ccccc4C[C@H]3C(=O)N3[C@H](C(=O)NCC(=O)N[C@@H](CN)C(=O)N4Cc5ccccc5C[C@H]4C(=O)N[C@@H](CN)C(=O)N[C@@H](CN)C(=O)N[C@@H](CN)C(=O)N[C@@H](CN)C(N)=O)C[C@@H]4CCCC[C@@H]43)C[C@@H]3CCCC[C@@H]32)C[C@@H]2CCCC[C@@H]21` (Ac-GF[Tic][Oic]G[Dap][Tic][Oic]GF[Tic][Oic]G[Dap][Tic][Dap][Dap][Dap][Dap]-NH2), the MIC with Brucella suis stood at 228 µM (≈ 499 µg/mL); in the assay with Acinetobacter baumannii [1], 3.6 µM (≈ 7.88 µg/mL); against Francisella tularensis, 228 µM (≈ 499 µg/mL); in the assay with Yersinia pestis it was 228 µM (≈ 499 µg/mL); in the assay on Bacillus anthracis, 14.8 µM (≈ 32.4 µg/mL); in assay [2], 228 µM (≈ 499 µg/mL). In addition, the MIC against Burkholderia mallei was determined as 228 µM (≈ 499 µg/mL); against Brucella melitensis it was 228 µM (≈ 499 µg/mL); in the assay on Brucella abortus, 228 µM (≈ 499 µg/mL); against Acinetobacter baumannii [3] it was 3.6 µM (≈ 7.88 µg/mL); in the assay with Staphylococcus aureus, 114 µM (≈ 249 µg/mL).
